Data published in US20050202032A1, “Use of neglected target tissue antigens in modulation of immune responses” (The Regents of the University of California, priority 1998, published 2005).

Legend:
[1] = system: splenic T cells of NOD mice; assay: T cell proliferation: immunogenicity and spontaneous recall responses to candidate NTTA peptides (Example 4); format: cell-based; conditions: peptide used as the immunizant; FIG. 4
Protocol: T-cell proliferation assays. Female NOD mice were injected i.p. at 8 weeks of age with 100 μg antigen, or control β-galactosidase, in 100 μl of 50% IFA. The mice were reinjected 2 weeks later. At 12 weeks of age, splenic T-cells were tested for proliferative responses to GAD65, hsp277, β-galactosidase and the HEL peptide, as previously described.
Transgenic animal models have shown that neoantigens which are expressed at low levels in peripheral tissues often have little impact on T cell education and elicit strong immune responses after immunization (4-8). Identifying NTTAs that were specifically expressed in the β cells at low levels was therefore preferred. The DNA sequence banks were screened for cDNA sequences isolated from mouse β cell subtraction libraries. Mouse cDNA sequences were selected from both known and unknown β cell cDNAs and from both β-cell specific and ubiquitous antigens, some of which appeared to be expressed only at low levels specifically in β cells. Other cDNAs that were expressed at higher levels in the β cells, or in other tissues were selected by Northern analysis for comparison purposes. From the open reading frames of the candidate cDNAs we synthesized a dozen peptides which contained a consensus NOD class II MHC binding motif (54, 55). We identified 4 peptides (sequences provided above) from 3 different mouse B cell proteins that were immunogenic in NOD mice (FIG. 4).
The remaining peptides tested were peptide 1, a 15mer from calbindin having the sequence EEFMKTWRKYDTDHS; • peptide 3, also a 15mer from calbindin having the sequence LKDLCEKNKQELDIN; • peptide 5, a 15mer from clone 38 in turn derived from a beta cell specific cDNA library (Neophytou, P. et al Diabetes, 45:127, 1996) having the sequence ILKMDHHCPWVNNCV; and • peptide 8 from islet amyloid polypeptide having the sequence GKRNAAGDPNRESLDFL.
In addition, using a set of overlapping GAD peptides, two GAD peptides have been identified which are immunogenic in NOD mice (GADp18 and GADp27; sequences provided under ANTIGENS, above) but which are ignored by their spontaneous autoimmune responses (data not shown). […] These conclusions can be used to advantage for the development of human NTTAs as immunotherapeutics for autoimmune disease, and other abnormal inflammatory immune responses.

[2] = system: splenic T cells of NOD mice; assay: as above; format: cell-based; conditions: at any stage of NOD mouse development, no immunization
[3] = system: irradiated young NOD mice receiving T cells from diabetic NOD mice; assay: Adoptive transfer of IDDM (Example 5); format: in vivo; conditions: cells from treated mice co-transferred with T cells from diabetic NOD mice
Protocol: Adoptive transfer of diabetes. At a specified time, NOD mice were injected i.p. with 100 μg GAD65 (or other specified antigen) or control β-galactosidase in 100 μl of 50% IFA and reinjected at 14 weeks of age. Five weeks later, single-cell suspensions of splenic mononuclear cells were prepared from each group, as well as from unmanipulated diabetic NOD mice. Ten million splenic mononuclear cells from the unmanipulated diabetic mice were mixed with an equal number of splenic mononuclear cells from GAD65 β-galactosidase-treated mice and injected intravenously into 5-week-old female NOD mice that had received 500 rad-γ-irradiation. Another control group received […] splenic mononuclear cells obtained only from unmanipulated diabetic mice.
Splenic T cells from NTTA peptide treated mice were co-transferred with T cells from diabetic NOD mice into irradiated young NOD mice. All of the mice which received cells from mice treated with a control immunogenic mouse serum albumin peptide (MSA 560-574) developed IDDM within 5 weeks. […] Thus, NTTAs are capable of inducing adoptively transferable regulatory responses which can down-regulate pathogenic T cells.

[4] = system: T cell clones from immunized NOD mice; assay: Cytokine secretion of NTTA- and GADp35-reactive T cell clones (Example 9); format: cell-based; conditions: ELISPOT and antigen-stimulated culture supernatants
Protocol: NOD mice were immunized with a NTTA peptide or GADp35 in incomplete Freund's adjuvant (IFA). Two weeks later lymph node and splenic T cells were cultured with antigen, IL-2 and IL-4 together with irradiated NOD splenic cells and T cell clones were generated by limiting dilution. A NTTA 7 and a GADp35-reactive clone were characterized by ELISPOT and analysis of antigen-stimulated culture supernatants. Both clones secreted IL-4, and no IFN-γ in response to the corresponding antigen. Thus, these T cell clones appear to be Th2-type.

[5] = system: antigen-specific T cells within islet infiltrates; assay: ELISPOT of single antigen-specific T cells from pancreatic islet infiltrates (Example 11); format: cell-based, NOD mice
Protocol: (§1) ELISPOT analysis. At a specified time, mice received a single i.p. injection of 100 μg β-galactosidase or GAD65 or other specified antigen in 50% IFA. Fourteen days later, splenic T-cells were isolated and the frequency of β-galactosidase and GAD65-specific T-cells secreting IL-4, IL-5 and IFN-γ was determined by using the ELISPOT technique as described (Forsthuber, T., et al., Science, 271:1728, 1996), with the exception that the treating antigen and β-galactosidase (100 μg/ml) were used as antigens, and 11B11 together with biotinylated BVD6-24G2 (PharMingen, San Diego, Calif.) was used for capture and detection of IL-4. The resulting spots were counted manually.
Monocytes were isolated from islets of 10-week old female NOD mice. 1000, 100 or 10 monocytes were mixed with 1 million irradiated splenic T cells and tested for IFNγ and IL-5 responses to B cell autoantigens, as well as control antigens, by ELISPOT.

[6] = system: diabetic NOD mice with transplanted syngeneic islets; assay: Transplantation of syngeneic islets into diabetic NOD mice (Example 2); format: in vivo; conditions: antigen i.p. in IFA to recipient diabetic NOD mice prior to transplantation; FIG. 1
Protocol: Transplantation of islets. Female NOD mice were monitored for the onset of IDDM, after which the mice were maintained on 1.0 to 1.5 units insulin (Humulin U, Lilly) per day. At the time of IDDM onset, mice were injected with either 100 μg of GAD65, hsp277, insulin B-chain or control β-galactosidase i.p. in 50% IFA. Ten days later, the mice were reinjected. Ten days after the second treatment, 3000 freshly isolated islets from newborn NOD mice were transplanted into the space beneath the kidney capsule, and Humulin administration was discontinued. The mice were reinjected every two weeks. Recurrence of diabetes is defined as two consecutive blood glucose levels of greater than 13 mmol/l.
Based on the ability of autoantigen treatment to inhibit disease in pre-diabetic NOD mice with (1) we tested whether this treatment could also protect transplanted syngeneic β cells from the established autoimmune responses in diabetic NOD mice. Islets were transplanted into diabetic NOD mice that had been treated with β-galactosidase. […] The results are shown in FIG. 1, wherein data are presented as time post-transplantation at which hyperglycemia recurred. These findings correlate with the extent to which each autoantigen was able to promote Th2 immunity in newly hyperglycemic animals (see Example 3, below).

[7] = system: splenic T cells of treated NOD mice; assay: ELISPOT of Th1/Th2 responses after neonatal autoantigen treatment (Example 8); format: cell-based; conditions: treated neonatally 100 μg i.p. in IFA, tested at 4 weeks in age; FIG. 10
Protocol: as §1
The data are represented as the mean number of spot forming colonies per million splenic T cells above background. The variation within, each group was <15%. Experimental and control mice were tested simultaneously (in triplicate) in two separate experiments (n=5/group).

NOD mice = conditions: intraperitoneally in incomplete Freund's adjuvant early in the NOD mouse disease process (ref 1); cited from earlier work

EEFMKTWRKYDTDHS [peptide 1]
immunogenicity in NOD mice (proliferative T cell response after immunization) [1]: did not contain determinants

ELKNFLKDLLEKANKTVDDT (homo sapiens) [Peptide 2]
immunogenicity in NOD mice (proliferative T cell response after immunization) [1]: immunogenic
spontaneous proliferative splenic T cell recall responses [2]: did not detect

GKRNAAGDPNRESLDFL [peptide 8, from islet amyloid polypeptide]
immunogenicity in NOD mice (proliferative T cell response after immunization) [1]: did not contain determinants

ILKMDHHCPWVNNCV [peptide 5, 15mer from clone 38]
immunogenicity in NOD mice (proliferative T cell response after immunization) [1]: did not contain determinants

LIKPDRCHHCSVCDKC (homo sapiens) [Peptide 4]
immunogenicity in NOD mice (proliferative T cell response after immunization) [1]: immunogenic
spontaneous proliferative splenic T cell recall responses [2]: did not detect

LKDLCEKNKQELDIN [peptide 3]
immunogenicity in NOD mice (proliferative T cell response after immunization) [1]: did not contain determinants

MSA 560-574: control immunogenic mouse serum albumin peptide 560-574 (KPKATAEQLKTVMDD)
time by which all recipient mice developed IDDM [3]: ≤ 5 weeks

NHLRATPVRSGSNPQ (homo sapiens) [Peptide 6]
immunogenicity in NOD mice (proliferative T cell response after immunization) [1]: immunogenic
spontaneous proliferative splenic T cell recall responses [2]: did not detect

PEVKEKGMAAVPRLIAFTSE (homo sapiens) [GADp18]
immunogenicity in NOD mice (proliferative T cell response after immunization) [1]: immunogenic
spontaneous proliferative splenic T cell recall responses [2]: ignored

PLQCSALLVREEGLMQSCNQ (homo sapiens) [GADp27]
immunogenicity in NOD mice (proliferative T cell response after immunization) [1]: immunogenic
spontaneous proliferative splenic T cell recall responses [2]: ignored

TQRLANFLVRSSNNL (homo sapiens) [Peptide 7]
immunogenicity in NOD mice (proliferative T cell response after immunization) [1]: immunogenic
IFN-γ secretion of reactive T cell clone in response to the corresponding antigen [4]: no
IL-4 secretion of reactive T cell clone in response to the corresponding antigen [4]: secreted
spontaneous proliferative splenic T cell recall responses [2]: did not detect

B1: GAD: Mouse GAD65, glutamic acid decarboxylase, β cell autoantigen (protein, UniProt P48320 1-585, looked up)
Glutamate decarboxylase 2: MASPGSGFWSFGSEDGSADPENPGTARAWCQVAQKFTGGIGNKLCALLYGDSGKPAEGGGSVTSRAATGKVACTCDQKPCNCPKGDVNYAFLHATDLLPACDGERPTLAFLQDVMNILLQYVVKSFDRSTKVIDFHYPNELLQEYNWELADQPQNLEEILTHCQTTLKYAIKTGHPRYFNQLSTGLDMVGLAADWLTSTANTNMFTYEIAPVFVLLEYVTLKKMREIIGWPGGSGDGIFSPGGAISNMYAMLIARYKMFPEVKEKGMAAVPRLIAFTSEHSHFSLKKGAAALGIGTDSVILIKCDERGKMIPSDLERRILEVKQKGFVPFLVSATAGTTVYGAFDPLLAVADICKKYKIWMHVDAAWGGGLLMSRKHKWKLSGVERANSVTWNPHKMMGVPLQCSALLVREEGLMQSCNQMHASYLFQQDKHYDLSYDTGDKALQCGRHVDVFKLWLMWRAKGTTGFEAHIDKCLELAEYLYTIIKNREGYEMVFDGKPQHTNVCFWFVPPSLRTLEDNEERMSRLSKVAPVIKARMMEYGTTMVSYQPLGDKVNFFRMVISNPAATHQDIDFLIEEIERLGQDL
IFNγ responses, number of T cells ([5]; 100 islet monocytes mixed with 1 million irradiated splenic T cells): 15
IFNγ responses, number of T cells ([5]; 1,000 islet monocytes mixed with 1 million irradiated splenic T cells, 10-week old female NOD mice): 123
syngeneic islet graft survival (recurrence of hyperglycemia) [6]: greatly extended syngeneic islet graft survival
Th2 and Th1 responses to the injected autoantigen [7]: both Th2 and Th1 responses
protection from IDDM (NOD mice): highly protective
